Source: patent US4424222A, “Pyridobenzodiazepinones, pharmaceutical compositions and method of use thereof” (Karl Thomae GmbH, priority 1982, dated 1984)

Experiments:
[1] = Mydriasis (effect on pupil size); parameters: species or system rats; conditions: in vivo, iv; rat, pupil size observed for 10 minutes; double blind
Method: The effect of the test substances on the pupil size in rats was investigated as follows:
The substances were administered intravenously to groups of 10 animals in at least three uniformly graduated doses. […] The percentage of test animals in which mydriasis occurred was determined. The ED50 values were again determined using the method of LITCHFIELD and WILCOXON (see above).

[2] = biological target: T1, muscarinic receptors (whole heart) (Rattus norvegicus, UniProt P10980); experiment: Receptor binding test (3H-N-methylscopolamine displacement), heart; parameters: species or system Sprague-Dawley rats; conditions: 0.3 n molar 3H-NMS, 30° C., 45 minutes, read-out: Receptor binding tests IC50, Heart
T1 construct: All the organs were then homogenized in a Potter apparatus; from tissue; host or cells: whole heart homogenate of male Sprague-Dawley rats
T1 sequence (P10980 1-466): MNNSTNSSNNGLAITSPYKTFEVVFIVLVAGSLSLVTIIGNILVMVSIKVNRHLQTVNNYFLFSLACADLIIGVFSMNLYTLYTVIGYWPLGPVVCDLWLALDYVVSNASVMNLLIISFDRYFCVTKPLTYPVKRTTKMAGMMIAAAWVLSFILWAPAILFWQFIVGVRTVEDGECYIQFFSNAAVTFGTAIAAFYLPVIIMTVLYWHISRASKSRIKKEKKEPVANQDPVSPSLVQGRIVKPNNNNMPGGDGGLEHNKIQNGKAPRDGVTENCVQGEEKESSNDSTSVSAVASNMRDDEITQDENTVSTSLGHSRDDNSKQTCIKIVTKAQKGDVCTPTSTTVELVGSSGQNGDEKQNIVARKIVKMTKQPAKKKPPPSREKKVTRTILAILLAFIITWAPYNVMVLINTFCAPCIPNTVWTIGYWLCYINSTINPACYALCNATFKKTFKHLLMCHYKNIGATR
Method: (§1) The organ donors were male Sprague-Dawley rats with a body weight of from 180 to 200 g. After the heart, stomach and cerebral cortex had been removed, the remainder of the operation was carried out in ice-cold Hepes-HCl buffer (pH 7.4; 100 m molar NaCl, 10 m molar MgCl2). The smooth muscle of the fundus of the stomach was separated from the mucous membrane of the stomach and subjected to preliminary homogenization. The whole heart was cut up with scissors. All the organs were then homogenized in a Potter apparatus.
(§2) For the binding test, the homogenized organs were diluted as follows:
The homogenized organ preparations were incubated at a specific concentration of a radio labeled compound and with a series of concentrations of the non-radioactive test substances in an Eppendorf centrifuge tube at 30° C. Then duration of incubation was 45 minutes. 0.3 n molar ^3 H-N-methylscopolamine (^3 H-NMS) was used as the radio labeled compound. After incubation had been brought to an end by centrifuging at 14 000 g, the radioactivity in the pellet was determined. It represents the sum of the specific and non-specific binding of ^3 H-NMS. The proportion of non-specific binding was defined as the radioactivity which was bound in the presence of 1μ molar quinuclidinylbenzylate. Four measurements were taken in each case. The IC50 values of the non-labelled test substances were determined graphically. […]

[3] = Oxotremorine test: inhibition of salivation; parameters: species or system albino rats (Crl:COBS-CD (SD) BR strain); conditions: in vivo, iv; rat, i.v. 15 minutes before oxotremorine 0.083 mg/kg i.v.; double blind
Method: (§3) Oxotremorine, a specific agonist for muscarinic receptors, produces lesions in the mucous membrane of the stomach in rats and increases their secretion of saliva. This test method was chosen so that any selective activity of an antimuscarinic substance on the stomach could be identified.
(§4) 10 female albino rats (of the Crl:COBS-CD (SD) BR strain) with a body weight of from 120 to 150 g were used in each treatment group and were kept without food for 24 hours before the start of the test but given free access to drinking water.
(§5) In order to determine, in preliminary tests, the muscarinic effect of oxotremorine on each of the symptoms studied, a dosage/activity curve was drawn up with at least three dosages for each symptom.
(§6) When testing the antimuscarinic substances, the dosage of oxotremorine which triggered the symptom in question in 90 to 100% of the animals in the preliminary tests was used.
Secretion of saliva: 0.083 mg/kg i.v.
(§7) Each antimuscarinic substance was administered intravenously in uniformly graduated doses 15 minutes before the oxotremorine was administered. Control groups were given corresponding quantities of the solvent and suspending agent without the test substance.
(§8) Immediately after the oxotremorine was administered, the animals were placed in a glass case for 15 minutes and observed.
(§9) The ED50 values were determined using the method described by LITCHFIELD and WILCOXON (J. Pharmacol. Exp. Ther. 96, 99, 1949).

[4] = biological target: muscarinic receptors (cerebral cortex); experiment: Receptor binding test (3H-N-methylscopolamine displacement), cerebral cortex; parameters: species or system Sprague-Dawley rats; conditions: 0.3 n molar 3H-NMS, 30° C., 45 minutes, read-out: Receptor binding tests IC50, Cortex
Method: as §1, §2
(§10) The homogenized organ preparations were incubated at a specific concentration of a radio labeled compound and with a series of concentrations of the non-radioactive test substances in an Eppendorf centrifuge tube at 30° C. Then duration of incubation was 45 minutes. 0.3 n molar ^3 H-N-methylscopolamine (^3 H-NMS) was used as the radio labeled compound. After incubation had been brought to an end by centrifuging at 14 000 g, the radioactivity in the pellet was determined. It represents the sum of the specific and non-specific binding of ^3 H-NMS. The proportion of non-specific binding was defined as the radioactivity which was bound in the presence of 1μ molar quinuclidinylbenzylate. Four measurements were taken in each case. The IC50 values of the non-labelled test substances were determined graphically. They represent the concentration of test substance at which the specific binding of ^3 H-NMS to the muscarinic receptors in the various organs was inhibited by 50%.

[5] = biological target: muscarinic receptors (smooth muscle of the fundus of the stomach); experiment: Receptor binding test (3H-N-methylscopolamine displacement), smooth muscle fundus of stomach; parameters: species or system Sprague-Dawley rats; conditions: 0.3 n molar 3H-NMS, 30° C., 45 minutes, read-out: Receptor binding tests IC50, Smooth muscle fundus of stomach
Method: as §1, §2
Smooth muscle of the fundus of the stomach: 1:100
as §10

[6] = test system: muscarinic receptors (oxotremorine-induced lesions of the gastric mucous membrane); experiment: Oxotremorine test: anti-ulcerative effect (lesions in mucous membrane of stomach); format: in vivo, albino rats (Crl:COBS-CD (SD) BR strain); conditions: iv; rat, i.v. 15 minutes before oxotremorine 0.62 mg/kg i.v.; neostigmine 1 mg/kg oral
Method: as §3, §4, §5, §6
Lesions in mucous membrane of stomach: 0.62 mg/kg i.v.
as §7, §8, §9
The effects on lesions of the mucous membrane of the stomach were evaluated as follows:
The lesions of the gastric mucous membrane were produced by intravenous injection of 0.62 mg/kg of oxotremorine 30 minutes after the oral administration of 1 mg/kg of neostigmine (a cholinesterase inhibitor). 60 minutes after the administration of the neostigmine, the animals were killed, the stomachs were removed and opened and examined for the presence of any lesions in the mucous membrane. The protective effect of the test substances was expressed as the percentabge inhibition (percentage of animals without lesions). The ED50 and ED70 values were determined using the method of LITCHFIELD AND WILCOXON (see above).

[7] = Water solubility of the base (remark); format: physicochemical; conditions: free base

In the case of `CN1CCC(OC(=O)N2c3ccccc3C(=O)Nc3cccnc32)CC1` [A, 5,11-dihydro-11-[[(1-methyl-4-piperidinyl)oxy]carbonyl]-6H-pyrido[2,3,-b][1,4]benzodiazepin-6-one], the ED50 at 10 min [1] is reported as 0.13 mg/kg, the IC50 [2] is reported as 500 nM and the ED50 at 0.25 h [3] is reported as 0.85 mg/kg. The IC50 [4] was 100 nM, the IC50 [5] was about 900 nM and the ED50 [6] was 0.01 mg/kg. It also gave an ED70 [6] of 0.03 mg/kg.
Molecule `CN1CCC(NC(=O)N2c3ccccc3C(=O)Nc3cccnc32)CC1` [B, 5,11-dihydro-11-[[(1-methyl-4-piperidinyl)amino]carbonyl]-6H-pyrido[2,3-b][1,4]benzodiazepin-6-one] has an ED50 at 10 min [1] of 0.139 mg/kg, an ED50 at 0.25 h [3] of 0.42 mg/kg and an IC50 [4] of 200 nM. For the same molecule, the IC50 [5] was 1200 nM, the ED50 [6] was 0.0068 mg/kg and the ED70 [6] was 0.019 mg/kg.
In the case of `CN1CCN(NC(=O)N2c3ccccc3C(=O)Nc3cccnc32)CC1` [C], the ED50 at 10 min [1] is reported as 0.07 mg/kg, the “water solubility (in words)” value [7] is reported as “watersoluble” and the ED50 at 0.25 h [3] is reported as 0.056 mg/kg. For the same molecule, the IC50 [4] was 60 nM, the IC50 [5] was 900 nM and the ED50 [6] was 0.0033 mg/kg. For the same molecule, the ED70 [6] was 0.0052 mg/kg.
